Patent publication US8273724B2, “Melanoma antigens and their use in diagnostic and therapeutic methods” (The United States of America, as represented by the …, priority 1994, dated 2012)
Where two headings read alike, the source gives them in different places. Where a SMILES comes first, the peptide text is derived from it.

Columns and labels:
HLA-A2.1 [1] = biological target: T1, HLA-A2.1 (Homo sapiens, UniProt P04439, D140Y/D185E/D98H/E176V/E277Q/G131W/G231S/I119V/I121R/I166T/I218V/L300P/L318F/N151K/N90K/P208A/P217A/Q86G/Q94H/R138H/R169H/T345S); assay: HLA-A2.1 binding assay of modified peptides, inhibition of radiolabeled Hbc 18-27 (Example 5)
T2 cells = assay: Induction of peptide specific CTL from PBL, 51Cr release against T2 cells with or without peptide (Example 5); type: cell-based, human; conditions: E:T = 3D40:1
Procedure: (§1) Induction of peptide specific CTL PBMC were separated from peripheral blood of HLA-A2+ melanoma patients and normal donors by centrifugation on Ficoll-Hypaque gradients and used as fresh or cryopreserved samples. […] Two days later, 12 IU/ml interleukin 2 (IL-2) (Chiron Co., Emeryville, Calif.) were added to the cultures. Lymphocytes were then restimulated weekly as follows: responder cells were harvested, washed once and replated in 24-well plates at a concentration of 2.5×10^5 cells/ml in CM. Autologous PBMC were thawed, washed twice in PBS, resuspended at 5-8×10^6 cells/ml in CM and pulsed with 1 ug/ml peptide in 15-ml conical tubes (5 ml/tube) for 3 hours at 37° C. These PBMC (stimulators) were then irradiated at 3000 rads, washed once in PBS and added to the responder cells at responder:stimulator ratios ranging between 1:3 and 1:10. The next day, 12 IU/ml IL-2 were added to the cultures. The activity of these CTL was tested by cytotoxicity assays after at least 2 rounds (14 days) of peptide stimulation. To generate CTL from TIL cultures, the dissociated tumor suspension were cultured for 1-2 days in 10% FCS RPMI-1640 medium to allow tumor cell adherence. The lymphocytes, recovered from the non-adherent fraction, were used for the induction of peptide specific CTL as described above.
(§2) Assessment of antigen recognition by CTL. ^51Cr release cytotoxic assays were performed to detect the recognition of peptide and melanoma cells by CTL. To analyze peptide recognition, T2 cell lines were preincubated for 2 h at 37° C. with 1 ug/ml peptide, washed and used as target cells in a ^51Cr release cytotoxic assay. The melanoma lines 624mel was established in our laboratory (See Example 1).

[2] = system: T2 cell lines preincubated with peptide; assay: Recognition of modified peptides by natural epitope (M9-2, G9-154, G9-209, G9-280) reactive T-cells, 51Cr release on peptide-pulsed T2 cells (Example 5); type: cell-based, human
How it was run: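 T2 target cells were pulsed with 1 ug/ml peptide for 2 h at 37° C., then washed. CTL recognition was measured by ^51Cr release cytotoxicity.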

[3] = system: 624mel melanoma cell line; assay: Induction of peptide specific CTL from PBL, 51Cr release against melanoma cells (Example 5); type: cell-based, human; conditions: for recognition and lysis of original epitopes and melanoma tumor cells (624 mel) by PBL stimulated with the peptide, compared with natural epitopes: PBL stimulated with autologous PBMC pulsed with peptide; for % specific lysis by PBL stimulated with the peptide: target 624mel, E:T = 3D40:1
Procedure: as §1, §2

HLA-A2.1 [4] = biological target: T1, HLA-A2.1; assay: Peptide binding assay to HLA-A2.1, competition with radiolabeled HBc18-27 (Example 4)
HLA-A2.1+ T2 cells = conditions: for TIL that recognize the peptide: cytotoxicity assays, T2 preincubated with peptide
[5] = system: T2 cells preincubated with peptides; assay: IFN-γ / cytokine release by TIL incubated with T2 cells preincubated with peptides; type: cell-based, human; conditions: T2 cells preincubated with peptide; data not shown
[6] = target T2 + G9-280-9V, after 4 stimulations
[7] = target T2 + G9-280, after 4 stimulations
[8] = target T2, after 4 stimulations (Table 20)
[9] = after 4 stimulations (Table 20)
[10] = Exp. 1, peptide 1 ug/ml, TIL 620-1
[11] = Exp. 1, peptide 1 ug/ml, TIL 620-2
[12] = Exp. 1, peptide 1 ug/ml, TIL 660-1
[13] = Exp. 1, peptide 1 ug/ml, TIL 1143
[14] = Exp. 1, peptide 1 ug/ml, TIL 1200
[15] = Exp. 1, peptide 1 ug/ml, TIL 1235
[16] = Exp. 3, peptide 1 ug/ml, TIL 660-3
[17] = Exp. 3, peptide 1 ug/ml, TIL 1143
[18] = Exp. 3, peptide 1 ug/ml, TIL 1200
[19] = Exp. 3, peptide 1 ug/ml, TIL 1235

CC[C@H](C)[C@H](NC(=O)[C@@H](N)CCCCN)C(=O)N[C@@H](Cc1c[nH]c2ccccc12)C(=O)NCC(=O)N[C@@H](CCC(N)=O)C(=O)N[C@@H](Cc1ccc(O)cc1)C(=O)N[C@@H](Cc1c[nH]c2ccccc12)C(=O)N[C@@H](CCC(N)=O)C(=O)N[C@H](C(=O)O)C(C)C [G9-154-2I] (H-KIWGQYWQV-OH; N-terminus and C-terminus assumed)
IC50 (HLA-A2.1 [1]; modified gp100 G9-154 peptides, read-out: Binding affinity to HLA-A2.1): 3 nM | % specific lysis by PBL stimulated with the peptide (T2 cells; target T2 + G9-154-2I, after 4 stimulations): 38% | % specific lysis by PBL stimulated with the peptide (T2 cells; target T2 + G9-154, after 4 stimulations): 37% | % specific lysis by PBL stimulated with the peptide (T2 cells; target T2, after 4 stimulations (Table 18)): 1% | Recognition by G9-154 reactive T-cell [2]: + (+, recognized) | recognition and lysis of original epitopes and melanoma tumor cells (624 mel) by PBL stimulated with the peptide, compared with natural epitopes [3]: better | % specific lysis by PBL stimulated with the peptide ([3]; after 4 stimulations (Table 18)): 23%

CC(C)C[C@H](NC(=O)[C@@H](N)Cc1ccccc1)C(=O)N[C@@H](CC(=O)O)C(=O)N[C@@H](CCC(N)=O)C(=O)N[C@H](C(=O)N1CCC[C@H]1C(=O)N[C@@H](Cc1ccccc1)C(=O)N[C@@H](CO)C(=O)N[C@H](C(=O)O)C(C)C)C(C)C [G9-209-1F2L]
binding affinity to HLA-A2.1 compared with the natural epitope (HLA-A2.1 [1]): higher binding affinity | % specific lysis by PBL stimulated with the peptide (T2 cells; target T2 + G9-209-1F2L, after 4 stimulations): 86% | % specific lysis by PBL stimulated with the peptide (T2 cells; target T2 + G9-209, after 4 stimulations): 85% | % specific lysis by PBL stimulated with the peptide (T2 cells; target T2, after 4 stimulations (Table 19)): 0% | Recognition by G9-209 reactive T-cell [2]: + (+, recognized) | recognition by the original melanoma reactive T-cells [2]: recognized | recognition and lysis of original epitopes and melanoma tumor cells (624 mel) by PBL stimulated with the peptide, compared with natural epitopes [3]: better | % specific lysis by PBL stimulated with the peptide ([3]; after 4 stimulations (Table 19)): 63%

CC(C)C[C@H](NC(=O)[C@@H](N)Cc1ccc(O)cc1)C(=O)N[C@@H](CCC(=O)O)C(=O)N1CCC[C@H]1C(=O)NCC(=O)N1CCC[C@H]1C(=O)N[C@H](C(=O)N[C@H](C(=O)O)[C@@H](C)O)C(C)C [G9-280-9V] (H-YLEPGPVT-OH; N-terminus and C-terminus assumed)
binding affinity to HLA-A2.1 compared with the natural epitope (HLA-A2.1 [1]): higher binding affinity | % specific lysis by PBL stimulated with the peptide (T2 cells; [6]): 58% | % specific lysis by PBL stimulated with the peptide (T2 cells; [7]): 87% | % specific lysis by PBL stimulated with the peptide (T2 cells; [8]): 0% | recognition by the original melanoma reactive T-cells [2]: recognized | Recognition by G9-280 reactive T-cell ([2]; 51Cr release, T2 cells preincubated with 1 ug/ml peptide): + (+, recognized) | recognition and lysis of original epitopes and melanoma tumor cells (624 mel) by PBL stimulated with the peptide, compared with natural epitopes [3]: better | % specific lysis by PBL stimulated with the peptide [3, 9]: 71%

CC(C)C[C@H](NC(=O)[C@H](CCCNC(=N)N)NC(=O)[C@H](CC(C)C)NC(=O)[C@@H](NC(=O)[C@H](C)NC(=O)[C@@H](NC(=O)CNC(=O)[C@H](CC(=O)O)NC(=O)[C@H](CC(C)C)NC(=O)[C@@H](N)CC(C)C)[C@@H](C)O)[C@@H](C)O)C(=O)O [G10-4]
IC50 (HLA-A2.1 [4]): 483 nM

CC(C)C[C@H](NC(=O)[C@@H](N)C(C)C)C(=O)N[C@@H](Cc1ccc(O)cc1)C(=O)N[C@@H](CCCNC(=N)N)C(=O)N[C@@H](Cc1ccc(O)cc1)C(=O)NCC(=O)N[C@@H](CO)C(=O)N[C@@H](Cc1ccccc1)C(=O)N[C@@H](CO)C(=O)N[C@H](C(=O)O)C(C)C [G10-5] (H-VLYRYGSFSV-OH; N-terminus and C-terminus assumed)
lysis of T2 cells preincubated with the peptide (HLA-A2.1+ T2 cells): repeatedly low | % specific lysis at E:T = 40:1 (HLA-A2.1+ T2 cells; [10]): 2% | % specific lysis at E:T = 40:1 (HLA-A2.1+ T2 cells; [11]): 7% | % specific lysis at E:T = 40:1 (HLA-A2.1+ T2 cells; [12]): 2% | % specific lysis at E:T = 40:1 (HLA-A2.1+ T2 cells; [13]): 1% | % specific lysis at E:T = 40:1 (HLA-A2.1+ T2 cells; [14]): 7% | % specific lysis at E:T = 40:1 (HLA-A2.1+ T2 cells; [15]): 0% | % specific lysis at E:T = 40:1 (HLA-A2.1+ T2 cells; [16]): 14% | % specific lysis at E:T = 40:1 (HLA-A2.1+ T2 cells; [17]): 2% | % specific lysis at E:T = 40:1 (HLA-A2.1+ T2 cells; [18]): 6% | % specific lysis at E:T = 40:1 (HLA-A2.1+ T2 cells; [19]): 5% | TIL that recognize the peptide (HLA-A2.1+ T2 cells): TIL660-3 also recognized | IC50 (HLA-A2.1 [4]; binding to HLA-A2.1): 13 nM | Ratio to Standard: binding affinity of the sample peptide to that of the standard peptide (HLA-A2.1 [4]; standard peptide 50% inhibition at 5 nM): 0.38

CC(C)C[C@H](NC(=O)[C@@H](N)Cc1ccc(O)cc1)C(=O)N[C@@H](CCC(=O)O)C(=O)N1CCC[C@H]1C(=O)NCC(=O)N1CCC[C@H]1C(=O)N[C@H](C(=O)N[C@H](C(=O)N[C@@H](C)C(=O)O)[C@@H](C)O)C(C)C [G9280]
HLA-A2.1 binding, in words (HLA-A2.1 [1]; natural epitopes): not high affinity binders | % specific lysis by PBL stimulated with the peptide (T2 cells; [6]): 8% | % specific lysis by PBL stimulated with the peptide (T2 cells; [7]): 11% | % specific lysis by PBL stimulated with the peptide (T2 cells; [8]): 3% | number of gp100 reactive TIL recognizing the peptide (HLA-A2.1+ T2 cells; 4 gp100 reactive TIL from different patients): 2 of 4 | % specific lysis at E:T = 40:1 (HLA-A2.1+ T2 cells; [10]): 2% | % specific lysis at E:T = 40:1 (HLA-A2.1+ T2 cells; [11]): 7% | % specific lysis at E:T = 40:1 (HLA-A2.1+ T2 cells; [12]): 43% | % specific lysis at E:T = 40:1 (HLA-A2.1+ T2 cells; [13]): 11% | % specific lysis at E:T = 40:1 (HLA-A2.1+ T2 cells; [14]): 0% | % specific lysis at E:T = 40:1 (HLA-A2.1+ T2 cells; [15]): 0% | % specific lysis at E:T = 40:1 (HLA-A2.1+ T2 cells; Exp. 2, peptide 1 ng/ml, TIL 620-1): 2% | % specific lysis at E:T = 40:1 (HLA-A2.1+ T2 cells; Exp. 2, peptide 1 ng/ml, TIL 620-2): 9% | % specific lysis at E:T = 40:1 (HLA-A2.1+ T2 cells; Exp. 2, peptide 1 ng/ml, TIL 660-2): 75% | % specific lysis at E:T = 40:1 (HLA-A2.1+ T2 cells; Exp. 2, peptide 1 ng/ml, TIL 1143): 34% | % specific lysis at E:T = 40:1 (HLA-A2.1+ T2 cells; Exp. 2, peptide 1 ng/ml, TIL 1200): 1% | % specific lysis at E:T = 40:1 (HLA-A2.1+ T2 cells; Exp. 2, peptide 1 ng/ml, TIL 1235): 2% | % specific lysis at E:T = 40:1 (HLA-A2.1+ T2 cells; [16]): 99% | % specific lysis at E:T = 40:1 (HLA-A2.1+ T2 cells; [17]): 37% | % specific lysis at E:T = 40:1 (HLA-A2.1+ T2 cells; [18]): 9% | % specific lysis at E:T = 40:1 (HLA-A2.1+ T2 cells; [19]): 5% | TIL that recognize the peptide (HLA-A2.1+ T2 cells): recognized by TIL660 and TIL1143 | % specific lysis by PBL stimulated with the peptide [3, 9]: 11% | binding affinity class to HLA-A2.1 (HLA-A2.1 [4]): inteivediate

CC[C@H](C)[C@H](NC(=O)CNC(=O)[C@H](C)NC(=O)[C@H](C)N)C(=O)NCC(=O)N[C@H](C(=O)N[C@@H](CC(C)C)C(=O)N[C@H](C(=O)N[C@H](C(=O)O)C(C)C)[C@@H](C)O)[C@@H](C)CC [M9-2]
Recognition by M9-2 reactive T-cell [2]: + (+, recognized) | cytokine secretion (IFN-γ, GM-CSF, TNF-α) by 10 TIL and clone A42 [5]: secreted cytokines
